US20240109972A1, “ANTIBODY AND TAXANE COMBINATION THERAPY” (Genmab A/S, priority 2020, published 2024)

How the values were obtained:
[1] = GEN1046 in combination with docetaxel in metastatic NSCLC subjects, adverse effects; format: in vivo, human
Procedure: Docetaxel was administered at a dose of 55 mg/m^2 or 75 mg/m^2 depending on the number of prior Dose Limiting Toxicities observed. The maximum tested dose of docetaxel was be 75 mg/m^2.
Subjects with a histological or cytological diagnosis of non-squamous NSCLC must not have an EGFR-sensitizing mutation and/or ALK translocation/ROS1 rearrangement. EGFR sensitizing mutations are those mutations that are amenable to treatment with an approved TKI. Documentation of EGFR and ALK status should be available per local assessment.

[2] = system: MC38 mouse colon cancer cells; format: in vivo; conditions: mbsIgG2a-PD-L1×4-1BB 0.5 mg/kg 2QW×3, docetaxel 10 mg/kg QW×3; FIG. 7A
Procedure: MC38 mouse colon cancer cells were cultured in Dulbecco's Modified Eagle Medium supplemented with 10% heat-inactivated fetal bovine serum at 37° C., 5% CO2. MC38 cells were harvested from a cell culture growing in log-phase and quantified.
MC38 cells (1×10^6 tumor cells in 100 μL PBS) were injected subcutaneously in the right lower flank of female C57BL/6 mice (obtained from Vital River Laboratories Research Models and Services; age 6-8 weeks at start of experiment).
Tumor growth was evaluated three times per week using a caliper. Tumor volumes (mm^3) were calculated from caliper measurements as ([length]×[width]^2)/2, where the length is the longest tumor dimension, and the width is the longest tumor dimension perpendicular to the length.
Mice were randomized into groups (n=10/group) with an average tumor volume of 64 mm^3 prior to treatment. […]
The mice were monitored daily for clinical signs of illness. […]

[3] = system: cervical cancer; conditions: first-line, combined with paclitaxel and platinum (cisplatin or carboplatin) or paclitaxel and topotecan; cited from earlier work

CC(=O)O[C@@]12CO[C@@H]1C[C@H](O)[C@@]1(C)C(=O)[C@H](O)C3=C(C)[C@@H](OC(=O)[C@H](O)[C@@H](NC(=O)OC(C)(C)C)c4ccccc4)C[C@@](O)([C@@H](OC(=O)c4ccccc4)[C@H]21)C3(C)C [Docetaxel, reference compound]
1: Anemia Grade 1, Docetaxel-related ([1]; 55 mg/m^2 Docetaxel + GEN1046) | Blood alkaline phosphatase increase Grade 2, Docetaxel-related ([1]; 55 mg/m^2 Docetaxel + GEN1046) | Blood alkaline phosphatase increase Grade 3, Docetaxel-related ([1]; 55 mg/m^2 Docetaxel + GEN1046) | Dysgeusia Grade 2, Docetaxel-related ([1]; 55 mg/m^2 Docetaxel + GEN1046) | Fatigue Grade 3, Docetaxel-related ([1]; 55 mg/m^2 Docetaxel + GEN1046) | Febrile neutropenia Grade 3, Docetaxel-related ([1]; 55 mg/m^2 Docetaxel + GEN1046) | Hypokalemia Grade 2, Docetaxel-related ([1]; 55 mg/m^2 Docetaxel + GEN1046) | Hypomagnesaemia Grade 1, Docetaxel-related ([1]; 55 mg/m^2 Docetaxel + GEN1046) | Hyponatremia Grade 1, Docetaxel-related ([1]; 55 mg/m^2 Docetaxel + GEN1046) | Infusion site extravasation Grade 1, Docetaxel-related ([1]; 55 mg/m^2 Docetaxel + GEN1046) | Nausea Grade 1, Docetaxel-related ([1]; 55 mg/m^2 Docetaxel + GEN1046) | Neutrophil count decreased Grade 4, Docetaxel-related ([1]; 55 mg/m^2 Docetaxel + GEN1046) | Pyrexia Grade 1, Docetaxel-related ([1]; 55 mg/m^2 Docetaxel + GEN1046) | Pyrexia Grade 2, Docetaxel-related ([1]; 55 mg/m^2 Docetaxel + GEN1046) | White blood cell count decreased Grade 4, Docetaxel-related ([1]; 55 mg/m^2 Docetaxel + GEN1046) | Anaemia Grade 3, Docetaxel-related ([1]; 75 mg/m^2 Docetaxel + GEN1046) | Diarrhea Grade 1, Docetaxel-related ([1]; 75 mg/m^2 Docetaxel + GEN1046) | Dyspnea Grade 4, Docetaxel-related ([1]; 75 mg/m^2 Docetaxel + GEN1046) | Fatigue Grade 1, Docetaxel-related ([1]; 75 mg/m^2 Docetaxel + GEN1046) | Gastrooesophageal reflux disease Grade 2, Docetaxel-related ([1]; 75 mg/m^2 Docetaxel + GEN1046) | Hiccups Grade 2, Docetaxel-related ([1]; 75 mg/m^2 Docetaxel + GEN1046) | Lacrimation increased Grade 1, Docetaxel-related ([1]; 75 mg/m^2 Docetaxel + GEN1046) | Nausea Grade 1, Docetaxel-related ([1]; 75 mg/m^2 Docetaxel + GEN1046) | Neutrophil count decreased Grade 3, Docetaxel-related ([1]; 75 mg/m^2 Docetaxel + GEN1046) | Neutrophil count decreased Grade 4, Docetaxel-related ([1]; 75 mg/m^2 Docetaxel + GEN1046) | Not coded: periphery sensory neuropathy Grade 1, Docetaxel-related ([1]; 75 mg/m^2 Docetaxel + GEN1046) | Vomiting Grade 1, Docetaxel-related ([1]; 75 mg/m^2 Docetaxel + GEN1046)
comparable to the PBS-treated group: Tumor outgrowth [2]
No reported drug-related hepatoxicities: Hepatotoxicity ([1]; GEN1046 in combination with Docetaxel)
2: Anemia Grade 2, Docetaxel-related ([1]; 55 mg/m^2 Docetaxel + GEN1046) | Anemia Grade 3, Docetaxel-related ([1]; 55 mg/m^2 Docetaxel + GEN1046) | Fatigue Grade 2, Docetaxel-related ([1]; 55 mg/m^2 Docetaxel + GEN1046) | Vomiting Grade 2, Docetaxel-related ([1]; 55 mg/m^2 Docetaxel + GEN1046) | Fatigue Grade 2, Docetaxel-related ([1]; 75 mg/m^2 Docetaxel + GEN1046) | Nausea Grade 2, Docetaxel-related ([1]; 75 mg/m^2 Docetaxel + GEN1046)
0: Anemia Grade 4, Docetaxel-related ([1]; 55 mg/m^2 Docetaxel + GEN1046) | Anemia Grade 5, Docetaxel-related ([1]; 55 mg/m^2 Docetaxel + GEN1046) | Blood alkaline phosphatase increase Grade 1, Docetaxel-related ([1]; 55 mg/m^2 Docetaxel + GEN1046) | Blood alkaline phosphatase increase Grade 4, Docetaxel-related ([1]; 55 mg/m^2 Docetaxel + GEN1046) | Blood alkaline phosphatase increase Grade 5, Docetaxel-related ([1]; 55 mg/m^2 Docetaxel + GEN1046) | Dysgeusia Grade 1, Docetaxel-related ([1]; 55 mg/m^2 Docetaxel + GEN1046) | Dysgeusia Grade 3, Docetaxel-related ([1]; 55 mg/m^2 Docetaxel + GEN1046) | Dysgeusia Grade 4, Docetaxel-related ([1]; 55 mg/m^2 Docetaxel + GEN1046) | Dysgeusia Grade 5, Docetaxel-related ([1]; 55 mg/m^2 Docetaxel + GEN1046) | Fatigue Grade 1, Docetaxel-related ([1]; 55 mg/m^2 Docetaxel + GEN1046) | Fatigue Grade 4, Docetaxel-related ([1]; 55 mg/m^2 Docetaxel + GEN1046) | Fatigue Grade 5, Docetaxel-related ([1]; 55 mg/m^2 Docetaxel + GEN1046) | Febrile neutropenia Grade 1, Docetaxel-related ([1]; 55 mg/m^2 Docetaxel + GEN1046) | Febrile neutropenia Grade 2, Docetaxel-related ([1]; 55 mg/m^2 Docetaxel + GEN1046) | Febrile neutropenia Grade 4, Docetaxel-related ([1]; 55 mg/m^2 Docetaxel + GEN1046) | Febrile neutropenia Grade 5, Docetaxel-related ([1]; 55 mg/m^2 Docetaxel + GEN1046) | Hypokalemia Grade 1, Docetaxel-related ([1]; 55 mg/m^2 Docetaxel + GEN1046) | Hypokalemia Grade 3, Docetaxel-related ([1]; 55 mg/m^2 Docetaxel + GEN1046) | Hypokalemia Grade 4, Docetaxel-related ([1]; 55 mg/m^2 Docetaxel + GEN1046) | Hypokalemia Grade 5, Docetaxel-related ([1]; 55 mg/m^2 Docetaxel + GEN1046) | Hypomagnesaemia Grade 2, Docetaxel-related ([1]; 55 mg/m^2 Docetaxel + GEN1046) | Hypomagnesaemia Grade 3, Docetaxel-related ([1]; 55 mg/m^2 Docetaxel + GEN1046) | Hypomagnesaemia Grade 4, Docetaxel-related ([1]; 55 mg/m^2 Docetaxel + GEN1046) | Hypomagnesaemia Grade 5, Docetaxel-related ([1]; 55 mg/m^2 Docetaxel + GEN1046) | Hyponatremia Grade 2, Docetaxel-related ([1]; 55 mg/m^2 Docetaxel + GEN1046) | Hyponatremia Grade 3, Docetaxel-related ([1]; 55 mg/m^2 Docetaxel + GEN1046) | Hyponatremia Grade 4, Docetaxel-related ([1]; 55 mg/m^2 Docetaxel + GEN1046) | Hyponatremia Grade 5, Docetaxel-related ([1]; 55 mg/m^2 Docetaxel + GEN1046) | Infusion site extravasation Grade 2, Docetaxel-related ([1]; 55 mg/m^2 Docetaxel + GEN1046) | Infusion site extravasation Grade 3, Docetaxel-related ([1]; 55 mg/m^2 Docetaxel + GEN1046) | Infusion site extravasation Grade 4, Docetaxel-related ([1]; 55 mg/m^2 Docetaxel + GEN1046) | Infusion site extravasation Grade 5, Docetaxel-related ([1]; 55 mg/m^2 Docetaxel + GEN1046) | Nausea Grade 2, Docetaxel-related ([1]; 55 mg/m^2 Docetaxel + GEN1046) | Nausea Grade 3, Docetaxel-related ([1]; 55 mg/m^2 Docetaxel + GEN1046) | Nausea Grade 4, Docetaxel-related ([1]; 55 mg/m^2 Docetaxel + GEN1046) | Nausea Grade 5, Docetaxel-related ([1]; 55 mg/m^2 Docetaxel + GEN1046) | Neutrophil count decreased Grade 1, Docetaxel-related ([1]; 55 mg/m^2 Docetaxel + GEN1046) | Neutrophil count decreased Grade 2, Docetaxel-related ([1]; 55 mg/m^2 Docetaxel + GEN1046) | Neutrophil count decreased Grade 3, Docetaxel-related ([1]; 55 mg/m^2 Docetaxel + GEN1046) | Neutrophil count decreased Grade 5, Docetaxel-related ([1]; 55 mg/m^2 Docetaxel + GEN1046) | Pyrexia Grade 3, Docetaxel-related ([1]; 55 mg/m^2 Docetaxel + GEN1046) | Pyrexia Grade 4, Docetaxel-related ([1]; 55 mg/m^2 Docetaxel + GEN1046) | Pyrexia Grade 5, Docetaxel-related ([1]; 55 mg/m^2 Docetaxel + GEN1046) | Vomiting Grade 1, Docetaxel-related ([1]; 55 mg/m^2 Docetaxel + GEN1046) | Vomiting Grade 3, Docetaxel-related ([1]; 55 mg/m^2 Docetaxel + GEN1046) | Vomiting Grade 4, Docetaxel-related ([1]; 55 mg/m^2 Docetaxel + GEN1046) | Vomiting Grade 5, Docetaxel-related ([1]; 55 mg/m^2 Docetaxel + GEN1046) | White blood cell count decreased Grade 1, Docetaxel-related ([1]; 55 mg/m^2 Docetaxel + GEN1046) | White blood cell count decreased Grade 2, Docetaxel-related ([1]; 55 mg/m^2 Docetaxel + GEN1046) | White blood cell count decreased Grade 3, Docetaxel-related ([1]; 55 mg/m^2 Docetaxel + GEN1046) | White blood cell count decreased Grade 5, Docetaxel-related ([1]; 55 mg/m^2 Docetaxel + GEN1046) | Anaemia Grade 1, Docetaxel-related ([1]; 75 mg/m^2 Docetaxel + GEN1046) | Anaemia Grade 2, Docetaxel-related ([1]; 75 mg/m^2 Docetaxel + GEN1046) | Anaemia Grade 4, Docetaxel-related ([1]; 75 mg/m^2 Docetaxel + GEN1046) | Anaemia Grade 5, Docetaxel-related ([1]; 75 mg/m^2 Docetaxel + GEN1046) | Diarrhea Grade 2, Docetaxel-related ([1]; 75 mg/m^2 Docetaxel + GEN1046) | Diarrhea Grade 3, Docetaxel-related ([1]; 75 mg/m^2 Docetaxel + GEN1046) | Diarrhea Grade 4, Docetaxel-related ([1]; 75 mg/m^2 Docetaxel + GEN1046) | Diarrhea Grade 5, Docetaxel-related ([1]; 75 mg/m^2 Docetaxel + GEN1046) | Dyspnea Grade 1, Docetaxel-related ([1]; 75 mg/m^2 Docetaxel + GEN1046) | Dyspnea Grade 2, Docetaxel-related ([1]; 75 mg/m^2 Docetaxel + GEN1046) | Dyspnea Grade 3, Docetaxel-related ([1]; 75 mg/m^2 Docetaxel + GEN1046) | Dyspnea Grade 5, Docetaxel-related ([1]; 75 mg/m^2 Docetaxel + GEN1046) | Fatigue Grade 3, Docetaxel-related ([1]; 75 mg/m^2 Docetaxel + GEN1046) | Fatigue Grade 4, Docetaxel-related ([1]; 75 mg/m^2 Docetaxel + GEN1046) | Fatigue Grade 5, Docetaxel-related ([1]; 75 mg/m^2 Docetaxel + GEN1046) | Gastrooesophageal reflux disease Grade 1, Docetaxel-related ([1]; 75 mg/m^2 Docetaxel + GEN1046) | Gastrooesophageal reflux disease Grade 3, Docetaxel-related ([1]; 75 mg/m^2 Docetaxel + GEN1046) | Gastrooesophageal reflux disease Grade 4, Docetaxel-related ([1]; 75 mg/m^2 Docetaxel + GEN1046) | Gastrooesophageal reflux disease Grade 5, Docetaxel-related ([1]; 75 mg/m^2 Docetaxel + GEN1046) | Hiccups Grade 1, Docetaxel-related ([1]; 75 mg/m^2 Docetaxel + GEN1046) | Hiccups Grade 3, Docetaxel-related ([1]; 75 mg/m^2 Docetaxel + GEN1046) | Hiccups Grade 4, Docetaxel-related ([1]; 75 mg/m^2 Docetaxel + GEN1046) | Hiccups Grade 5, Docetaxel-related ([1]; 75 mg/m^2 Docetaxel + GEN1046) | Lacrimation increased Grade 2, Docetaxel-related ([1]; 75 mg/m^2 Docetaxel + GEN1046) | Lacrimation increased Grade 3, Docetaxel-related ([1]; 75 mg/m^2 Docetaxel + GEN1046) | Lacrimation increased Grade 4, Docetaxel-related ([1]; 75 mg/m^2 Docetaxel + GEN1046) | Lacrimation increased Grade 5, Docetaxel-related ([1]; 75 mg/m^2 Docetaxel + GEN1046) | Nausea Grade 3, Docetaxel-related ([1]; 75 mg/m^2 Docetaxel + GEN1046) | Nausea Grade 4, Docetaxel-related ([1]; 75 mg/m^2 Docetaxel + GEN1046) | Nausea Grade 5, Docetaxel-related ([1]; 75 mg/m^2 Docetaxel + GEN1046) | Neutrophil count decreased Grade 1, Docetaxel-related ([1]; 75 mg/m^2 Docetaxel + GEN1046) | Neutrophil count decreased Grade 2, Docetaxel-related ([1]; 75 mg/m^2 Docetaxel + GEN1046) | Neutrophil count decreased Grade 5, Docetaxel-related ([1]; 75 mg/m^2 Docetaxel + GEN1046) | Not coded: periphery sensory neuropathy Grade 2, Docetaxel-related ([1]; 75 mg/m^2 Docetaxel + GEN1046) | Not coded: periphery sensory neuropathy Grade 3, Docetaxel-related ([1]; 75 mg/m^2 Docetaxel + GEN1046) | Not coded: periphery sensory neuropathy Grade 4, Docetaxel-related ([1]; 75 mg/m^2 Docetaxel + GEN1046) | Not coded: periphery sensory neuropathy Grade 5, Docetaxel-related ([1]; 75 mg/m^2 Docetaxel + GEN1046) | Vomiting Grade 2, Docetaxel-related ([1]; 75 mg/m^2 Docetaxel + GEN1046) | Vomiting Grade 3, Docetaxel-related ([1]; 75 mg/m^2 Docetaxel + GEN1046) | Vomiting Grade 4, Docetaxel-related ([1]; 75 mg/m^2 Docetaxel + GEN1046) | Vomiting Grade 5, Docetaxel-related ([1]; 75 mg/m^2 Docetaxel + GEN1046)

bevacizumab
approximately 18 months: Median OS [3]
48%: ORR [3]
